Test results as given in patent US20230066946A1, “1,5-DIPHENYLPYRAZOLYL-3-OXYALKYL ACIDS AND 1-PHENYL-5-THIENYLPYRAZOLYL-3-OXYALKYL ACIDS AND THE USE THEREOF FOR CONTROL OF UNWANTED PLANT GROWTH” (Bayer Aktiengesellschaft, priority 2019, published 2023).

Experiments:
[1] = system: AMARE; test: Pre-emergence herbicidal action against AMARE; assay type: in vivo, Amaranthus retroflexus; conditions: scored visually after about 3 weeks vs untreated controls; for Pre-emergence action at 320 g/ha against AMARE in %: 100% = plants have died, 0% = like control plants; for Pre-emergence action against AMARE in %: 1280 g/ha
In short: (§1)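 Visual percent activity (100% = plants dead, 0% = like control) scored about 3 weeks after pre-emergence treatment in greenhouse. Compounds as WP or EC, applied to covering soil surface with 0.5% additive, 600 L/ha water, at 1280 or 320 g/ha.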

[2] = system: MATIN; test: Pre-emergence herbicidal action against MATIN; assay type: in vivo, Matricaria inodora; conditions: 1280 g/ha, scored visually after about 3 weeks vs untreated controls
Description: (§2) Seeds of mono- and dicotyledonous weed plants are placed in plastic pots in sandy loam soil (doubly sown with one species each of mono- or dicotyledonous weed plants per pot) and covered with soil. The compounds of the invention, formulated in the form of wettable powders (WP) or as emulsion concentrates (EC), are then applied onto the surface of the covering soil as aqueous suspension or emulsion with addition of 0.5% additive at a water application rate equivalent to 600 litres per hectare. After the treatment, the pots are placed in a greenhouse and kept under good growth conditions for the trial plants. After about 3 weeks, the effect of the preparations is scored visually in comparison with untreated controls as percentages. For example, 100% activity=the plants have died, 0% activity=like control plants. [table] Tables 4.1-4.15 below show the effects of selected compounds of the general formula (I) according to Tables 1 to 3 on various harmful plants at an application rate corresponding to 1280 or 320 g/ha, which have been obtained by the aforementioned experimental method.

[3] = system: VERPE; test: Pre-emergence herbicidal action against VERPE; assay type: in vivo, Veronica persica; conditions: 320 g/ha, scored visually after about 3 weeks vs untreated controls
Description: as §2

[4] = system: AMARE; test: Post-emergence herbicidal action against AMARE; assay type: in vivo, Amaranthus retroflexus; conditions: visual rating about 3 weeks after treatment
In short: (§3)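 Herbicidal effect, rated visually about 3 weeks after treatment as percent versus untreated controls. Test plants in sandy loam had received a foliar application at the one-leaf stage of 1280 or 320 g/ha, formulated as WP or EC with 0.5% additive in 600 litres per hectare water.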

[5] = system: MATIN; test: Post-emergence herbicidal action against MATIN; assay type: in vivo, Matricaria inodora; conditions: visual rating about 3 weeks after treatment
In short: as §3

[6] = system: PHBPU; test: Post-emergence herbicidal action against PHBPU; assay type: in vivo, Pharbitis purpurea; conditions: 320 g/ha, visual rating about 3 weeks after treatment
Protocol: (§4) [table] Seeds of mono- and dicotyledonous weed plants are placed in plastic pots in sandy loam soil (twin sowing with one species each of mono- or dicotyledonous weed plants per pot), covered with soil and cultivated in a greenhouse under controlled growth conditions. 2 to 3 weeks after sowing, the test plants are treated at the one-leaf stage. The compounds of the invention, formulated in the form of wettable powders (WP) or as emulsion concentrates (EC), are applied to the green parts of the plants as aqueous suspension or emulsion with addition of 0.5% additive at a water application rate equivalent to 600 litres per hectare. After the test plants have been kept in the greenhouse under optimum growth conditions for about 3 weeks, the activity of the preparations is rated visually in comparison to untreated controls. For example, 100% activity=the plants have died, 0% activity=like control plants. Tables 5.1-5.16 below show the effects of selected compounds of the general formula (I) according to Tables 1 to 3 on various harmful plants at an application rate corresponding to 1280 or 320 g/ha, which have been obtained by the aforementioned experimental method.

[7] = system: STEME; test: Post-emergence herbicidal action against STEME; assay type: in vivo, Stellaria media; conditions: visual rating about 3 weeks after treatment
In short: as §3

[8] = system: VIOTR; test: Post-emergence herbicidal action against VIOTR; assay type: in vivo, Viola tricolor; conditions: 320 g/ha, visual rating about 3 weeks after treatment
Protocol: as §4

[9] = system: STEME; test: Pre-emergence herbicidal action against STEME; assay type: in vivo, Stellaria media; conditions: scored visually after about 3 weeks vs untreated controls
In short: as §1

[10] = system: harmful plants; test: Pre-emergence herbicidal action, summary of Tables 4.1-4.15; assay type: in vivo; conditions: result in words
Description: as §2, with “plants.” for “plants. [table] Tables 4.1-4.15 below show the effects of selected compounds of the general formula (I) according to Tables 1 to 3 on various harmful plants at an application rate corresponding to 1280 or 320 g/ha, which have been obtained by the aforementioned experimental method.”
Tables 4.1-4.15 below show the effects of selected compounds of the general formula (I) according to Tables 1 to 3 on various harmful plants at an application rate corresponding to 1280 or 320 g/ha, which have been obtained by the aforementioned experimental method.
For example, compounds no. I-008, I-056, I-057, I-061, I-067, I-070 and I-072 applied by the pre-emergence method have very good action (80% to 100% herbicidal action) against harmful plants such as Alopecurus myosuroides, Amaranthus retroflexus, Matricaria inodora, Polygonum convolvulus, Setaria viridis and Stellaria media at an application rate of 1.28 kg of active substance or less per hectare.

[11] = system: ECHCG; test: Pre-emergence herbicidal action against ECHCG; assay type: in vivo, Echinochloa crus-galli; conditions: scored visually after about 3 weeks vs untreated controls, 100% = plants have died, 0% = like control plants
In short: as §1

[12] = system: SETVI; test: Pre-emergence herbicidal action against SETVI; assay type: in vivo, Setaria viridis; conditions: 1280 g/ha, scored visually after about 3 weeks vs untreated controls
In short: as §1

[13] = system: ECHCG; test: Post-emergence herbicidal action against ECHCG; assay type: in vivo, Echinochloa crus-galli; conditions: 1280 g/ha, post-emergence at one-leaf stage, rated visually after about 3 weeks vs untreated controls
In short: as §3

[14] = system: SETVI; test: Post-emergence herbicidal action against SETVI; assay type: in vivo, Setaria viridis; conditions: 1280 g/ha, post-emergence at one-leaf stage, rated visually after about 3 weeks vs untreated controls
In short: as §3

[15] = system: VIOTR; test: Pre-emergence herbicidal action against VIOTR; assay type: in vivo, Viola tricolor; conditions: 1280 g/ha, scored visually after about 3 weeks vs untreated controls
Description: as §2

[16] = system: VERPE; test: Post-emergence herbicidal action against VERPE; assay type: in vivo, Veronica persica; conditions: 320 g/ha, visual rating about 3 weeks after treatment
Protocol: as §4

[17] = system: POLCO; test: Pre-emergence herbicidal action against POLCO; assay type: in vivo, Polygonum convolvulus; conditions: 320 g/ha, scored visually after about 3 weeks vs untreated controls
Description: as §2

SMILES	Pre-emergence action against AMARE in % [1] [%]	Pre-emergence action against MATIN in % [2] [%]	Post-emergence action against AMARE in % ([4]; 1280 g/ha) [%]	Post-emergence action against MATIN in % ([5]; 1280 g/ha) [%]	Post-emergence action against PHBPU in % [6] [%]	Post-emergence action against STEME in % ([7]; 1280 g/ha) [%]	Post-emergence action against VIOTR in % [8] [%]	Pre-emergence action against STEME in % ([9]; 1280 g/ha) [%]	herbicidal efficacy against harmful plants in the case of pre-emergence treatment [10]	Pre-emergence action at 1280 g/ha against ECHCG in % [11] [%]	Pre-emergence action against SETVI in % [12] [%]	Post-emergence action against ECHCG in % [13] [%]	Post-emergence action against SETVI in % [14] [%]	also measured
COC(=O)COc1nn(-c2cccc(F)c2)c(-c2ccccc2)c1C#N [I-023]	90	100	80	80	80	80	80	–	–	–	–	–	–	Pre-emergence action at 320 g/ha against AMARE in % [1]: 90%; Pre-emergence action against VERPE in % [3]: 90%; Post-emergence action against STEME in % ([7]; 320 g/ha): 80%
COC(=O)COc1nn(-c2cccc(Cl)c2)c(-c2ccc(F)c(F)c2)c1Cl [I-026]	80	90	80	–	90	–	80	–	–	–	–	–	–	–
NCc1ccccc1.O=C(O)COc1nn(-c2cccc(F)c2)c(-c2ccccc2)c1I [II-13]	100	–	–	100	–	–	–	90	good herbicidal efficacy	–	–	–	–	–
C=CCNC(=O)COc1nn(-c2ccc(F)cc2)c(-c2cccc(F)c2)c1Cl [III-022]	90	–	90	–	–	100	–	100	good herbicidal efficacy	100	100	90	100	–
COC(=O)COc1nn(-c2cccc(F)c2)c(-c2ccccc2)c1Cl [I-016]	100	90	80	–	80	80	–	80	–	–	–	80	80	–
O=C(O)COc1nn(-c2ccc(F)cc2)c(-c2cccc(F)c2)c1[N+](=O)[O-] [I-121]	90	–	–	90	–	100	–	100	good herbicidal efficacy	100	100	–	–	–
CC(Oc1nn(-c2ccccc2)c(-c2ccc(F)cc2)c1Br)C(=O)O (centres unmarked) [I-138, 2-{[4-Bromo-5-(4-fluorophenyl)-1-phenyl-1H-pyrazol-3-yl]oxy}propanoic acid]	100	–	–	–	–	100	–	100	good herbicidal efficacy	100	100	–	–	–
C#Cc1c(OCC(=O)OC)nn(-c2ccccc2F)c1-c1ccccc1 [I-063]	80	–	–	80	–	–	90	80	–	–	100	–	80	Pre-emergence action against VIOTR in % [15]: 100%
COC(=O)CNC(=O)COc1nn(-c2ccc(F)cc2)c(-c2cccc(F)c2)c1Cl [III-027]	100	–	90	100	–	90	–	100	good herbicidal efficacy	100	90	90	100	–
C=CCNC(=O)COc1nn(-c2ccccc2F)c(-c2ccc(F)c(F)c2)c1Br [III-053]	90	–	–	90	–	100	–	100	good herbicidal efficacy	100	100	100	100	–
C#Cc1c(OCC(=O)OC)nn(-c2ccccc2)c1-c1ccc(F)cc1 [I-066]	100	–	–	80	90	–	80	–	–	–	–	–	–	Pre-emergence action against VIOTR in % [15]: 90%; Post-emergence action against MATIN in % ([5]; 320 g/ha): 80%
COC(=O)COc1nn(-c2ccc(Cl)cc2)c(-c2cccc(F)c2)c1C#N [I-048]	–	80	–	–	–	–	–	–	–	–	–	–	–	Post-emergence action against VERPE in % [16]: 80%
C=CCNC(=O)COc1nn(-c2ccccc2F)c(-c2ccccc2)c1Br [III-003]	100	–	100	–	80	–	–	100	good herbicidal efficacy	100	100	100	100	Pre-emergence action at 320 g/ha against AMARE in % [1]: 100%; Pre-emergence action against POLCO in % [17]: 100%; Pre-emergence action against STEME in % ([9]; 320 g/ha): 100%; Pre-emergence action against VERPE in % [3]: 100%; Post-emergence action against AMARE in % ([4]; 320 g/ha): 80%; Post-emergence action against VERPE in % [16]: 80%
